Values joined by “and” are separate entries in the source; they are usually repeats but may differ in a detail not shown here. Equal entries are not always repeated. Toxic doses and inconclusive results are not listed.
Tested on: CD2F1 mice, L1210 leukemia ip, survival T/C
Assay: NCI In Vivo Anticancer Drug Screen. Data for tumor model L1210 Leukemia (intraperitoneal) in CD2F1 (CDF1) mice
Conditions: higher = longer survival
Procedure, shortened: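 Compound-dosed mice with transplantable tumor versus matched vehicle controls; endpoint ratio T/C reported.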

[1] = endpoint: mean survival time, dose: 100.0 mg/kg/injection, schedule: Q01DX009 (ip), vehicle: saline with Tween-80
[2] = endpoint: mean survival time, dose: 100.0 mg/kg/injection, schedule: Q04DX003 (ip), vehicle: saline with Tween-80
[3] = endpoint: mean survival time, dose: 200.0 mg/kg/injection, schedule: Q01DX009 (ip), vehicle: saline with Tween-80
[4] = endpoint: mean survival time, dose: 200.0 mg/kg/injection, schedule: Q04DX003 (ip), vehicle: saline with Tween-80
[5] = endpoint: mean survival time, dose: 400.0 mg/kg/injection, schedule: Q01DX009 (ip), vehicle: saline with Tween-80
[6] = endpoint: mean survival time, dose: 400.0 mg/kg/injection, schedule: Q04DX003 (ip), vehicle: saline with Tween-80

Q: Which results are given for `Cc1c2cc[n+](CCN3CCCCC3)cc2c(C)c2c1[nH]c1ccc(O)cc12`?
A: T/C (endpoint: mean survival time, dose: 1.56 mg/kg/injection, schedule: Q01DX009 (ip), vehicle: suspension in saline): 160 % of control; T/C (endpoint: mean survival time, dose: 12.5 mg/kg/injection, schedule: Q01DX009 (ip), vehicle: saline): 150 % of control; T/C (endpoint: mean survival time, dose: 12.5 mg/kg/injection, schedule: Q01DX009 (ip), vehicle: suspension in saline): 121 % of control; T/C (endpoint: mean survival time, dose: 50.0 mg/kg/injection, schedule: Q01DX009 (ip), vehicle: saline): 188 % of control; T/C (endpoint: mean survival time, dose: 50.0 mg/kg/injection, schedule: Q01DX009 (ip), vehicle: suspension in saline): 92 % of control

Q: `CN(CCC(=O)N(C)CCC1CCCCC1)CCC1CCCCC1` was tested. Which T/C (endpoint: mean survival time, dose: 75.0 mg/kg/injection, schedule: Q01DX001 (ip), vehicle: saline) did it give?
A: 98 % of control

Q: Which T/C (endpoint: mean survival time, dose: 1.56 mg/kg/injection, schedule: Q01DX009 (ip), vehicle: Klucel (hydroxypropylcellulose) (HPC)) does the source give for `CS(=O)(=O)OCCN(CCOS(C)(=O)=O)c1ccc(N=Nc2ccccc2C(=O)O)cc1` here?
A: 124 % of control

Q: And the T/C (endpoint: mean survival time, dose: 3.12 mg/kg/injection, schedule: Q01DX009 (ip), vehicle: Klucel (hydroxypropylcellulose) (HPC))?
A: 155 % of control

Q: What about the T/C (endpoint: mean survival time, dose: 6.25 mg/kg/injection, schedule: Q01DX009 (ip), vehicle: Klucel (hydroxypropylcellulose) (HPC)) of the same compound?
A: 176 % of control

Q: With `Nc1nc(C=O)nc2c1ncn2C1OC(CO)C(O)C1O` (stereo not given) as the compound, how does the T/C (endpoint: median survival time, dose: 25.0 mg/kg/injection, schedule: Q01DX005 (ip), vehicle: water) read?
A: 101 % of control

Q: What about the T/C (endpoint: median survival time, dose: 50.0 mg/kg/injection, schedule: Q01DX005 (ip), vehicle: water) of the same compound?
A: 117 % of control

Q: What about the T/C (endpoint: median survival time, dose: 100.0 mg/kg/injection, schedule: Q01DX005 (ip), vehicle: water) of the same compound?
A: 117 % of control

Q: How did the T/C [1] turn out when `COC(CCC#N)c1ccc(Cl)cc1` (stereo not given) was run?
A: 95 % of control

Q: And the T/C [2]?
A: 97 % of control

Q: And the T/C [3]?
A: 101 % of control

Q: And the T/C [4]?
A: 102 % of control

Q: And the T/C [5]?
A: 96 % of control

Q: What about the T/C [6] of the same compound?
A: 98 % of control

Q: What does the source list for `Cn1c(=O)c2c(nc(Br)n2CC(O)CF)n(C)c1=O` (stereo not given)?
A: T/C (endpoint: mean survival time, dose: 12.5 mg/kg/injection, schedule: Q01DX005 (ip), vehicle: distilled water + Tween-80): 101 % of control; T/C (endpoint: mean survival time, dose: 25.0 mg/kg/injection, schedule: Q01DX005 (ip), vehicle: distilled water + Tween-80): 98 % of control; T/C (endpoint: mean survival time, dose: 50.0 mg/kg/injection, schedule: Q01DX005 (ip), vehicle: distilled water + Tween-80): 98 % of control; T/C (endpoint: mean survival time, dose: 100.0 mg/kg/injection, schedule: Q01DX005 (ip), vehicle: distilled water + Tween-80): 101 % of control; T/C (endpoint: mean survival time, dose: 200.0 mg/kg/injection, schedule: Q01DX005 (ip), vehicle: distilled water + Tween-80): 96 % of control

Q: Which results are given for `COC(=O)c1cccc2c(Cl)cc3ccccc3c12`?
A: T/C [1]: 105 % of control; T/C [2]: 98 % of control; T/C [3]: 105 % of control; T/C [4]: 104 % of control; T/C [5]: 103 % of control; T/C [6]: 97 % of control

Q: What does the source list for `CC(=N\NC(=O)c1ccccc1)/C(C)=N/NC(=O)c1ccccc1`?
A: T/C [2]: 90 % of control; T/C [4]: 86 % of control; T/C [6]: 90 % of control

Q: With `CC(=O)OC1(/N=[N+](/C)[O-])CCCC1` as the compound, how does the T/C (endpoint: mean survival time, dose: 50.0 mg/kg/injection, schedule: Q04DX003 (ip), vehicle: saline with Tween-80) read?
A: 167 % of control

Q: And the T/C [2]?
A: 95 % of control

Q: `CCCCCCCCCC(=O)NC(=S)Nc1ccc(Cl)cc1` was tested. Which T/C (endpoint: mean survival time, dose: 25.0 mg/kg/injection, schedule: Q01DX009 (ip), vehicle: saline with Tween-80) did it give?
A: 95 % of control and 96 % of control

Q: And the T/C (endpoint: mean survival time, dose: 50.0 mg/kg/injection, schedule: Q01DX009 (ip), vehicle: saline with Tween-80)?
A: 98 % of control and 101 % of control

Q: What about the T/C (endpoint: mean survival time, dose: 100.0 mg/kg/injection, schedule: Q01DX001 (ip), vehicle: saline with Tween-80) of the same compound?
A: 94 % of control and 95 % of control

Q: And the T/C (endpoint: mean survival time, dose: 100.0 mg/kg/injection, schedule: Q04DX002 (ip), vehicle: saline with Tween-80)?
A: 100 % of control and 104 % of control

Q: And the T/C (endpoint: mean survival time, dose: 200.0 mg/kg/injection, schedule: Q01DX001 (ip), vehicle: saline with Tween-80)?
A: 92 % of control and 103 % of control

Q: What about the T/C (endpoint: mean survival time, dose: 200.0 mg/kg/injection, schedule: Q04DX002 (ip), vehicle: saline with Tween-80) of the same compound?
A: 92 % of control and 93 % of control

Q: What about the T/C (endpoint: mean survival time, dose: 400.0 mg/kg/injection, schedule: Q01DX001 (ip), vehicle: saline with Tween-80) of the same compound?
A: 100 % of control and 103 % of control

Q: What about the T/C (endpoint: mean survival time, dose: 400.0 mg/kg/injection, schedule: Q04DX002 (ip), vehicle: saline with Tween-80) of the same compound?
A: 88 % of control and 90 % of control

Q: Which results are given for `CC(C)C1C(=O)CCCC1=O`?
A: T/C [2]: 102 % of control; T/C [4]: 105 % of control; T/C [6]: 96 % of control

Q: `[Cl][Pt+2][Cl].[NH-]CCC([NH-])C(=O)O` (stereo not given) was tested. Which T/C (endpoint: mean survival time, dose: 12.5 mg/kg/injection, schedule: Q04DX003 (ip), vehicle: saline) did it give?
A: 107 % of control

Q: What about the T/C (endpoint: mean survival time, dose: 25.0 mg/kg/injection, schedule: Q04DX003 (ip), vehicle: saline) of the same compound?
A: 121 % of control

Q: What about the T/C (endpoint: mean survival time, dose: 50.0 mg/kg/injection, schedule: Q04DX003 (ip), vehicle: saline) of the same compound?
A: 115 % of control

Q: How did the T/C [1] turn out when `O=C(NC(O)C(Cl)(Cl)Cl)c1ccccc1` (stereo not given) was run?
A: 94 % of control

Q: And the T/C [2]?
A: 107 % of control

Q: What about the T/C [3] of the same compound?
A: 89 % of control

Q: And the T/C [4]?
A: 107 % of control

Q: And the T/C [5]?
A: 91 % of control

Q: What about the T/C [6] of the same compound?
A: 107 % of control

Q: Which T/C [1] does the source give for `COC(=O)C1C2CC(C(Br)C2Br)C1C(=O)O` (stereo not given) here?
A: 96 % of control

Q: What about the T/C [2] of the same compound?
A: 96 % of control

Q: What about the T/C [3] of the same compound?
A: 98 % of control

Q: And the T/C [4]?
A: 96 % of control and 94 % of control

Q: And the T/C [5]?
A: 97 % of control

Q: And the T/C [6]?
A: 88 % of control and 98 % of control

— PubChem BioAssay AID256 (DTP/NCI, 2004)
